One may read the LD50 as the dose expected to kill half of the subjects tested.

21 compounds from patent US4668677A, “4-phenylphthalazine derivatives, their preparation and their use as pharmaceuticals” (Mitsubishi Chemical Industries Limited, priority 1984, dated 1987) can be followed below.

Data set [1] relates to mice. Briefly: Anti-thrombotic activity: arachidonic acid-induced mortality in mice. The data set is classed as in vivo, mouse (male ICR-JCL strain). Particulars: for Survival time of dead mice: arachidonic acid 100 mg/Kg i.v.; for Mortality: arachidonic acid 100 mg/Kg i.v. after 1 hour. As to the method:
(§1) Male ICR-JCL strain mice with an average body weight of about 25 g and male New Zealand White rabbits with an average body weight of about 3 Kg were used.
Where mice were used as experimental animals, a suspension of the test compound indicated in Table 3 in a 1% tragacanth aqueous solution was orally administered to animals at 20 ml/Kg. One hour after the administration, an arachidonic acid (PL-biochemical Co., Inc.) solution dissolved in a 0.1M sodium carbonate aqueous solution was intravenously given at 100 mg/Kg. Evaluation of activity was effected with the time from the administration of arachidonic acid up to the death of animals as well as mortality.

Data set [2] has as its system rabbits. The experiment in a line: Anti-thrombotic activity: arachidonic acid-induced mortality in rabbits. The data set is classed as in vivo, rabbit (male New Zealand White). Particulars: of 4 rabbits. As to the method: as §1
Where rabbits were used as experimental animals, a suspension of the test compound in a 1% tragacanth aqueous solution was orally administered to animals at 5 ml/Kg. Two hours after the administration, an arachidonic acid solution dissolved in a 0.1M potassium carbonate solution was injected into pinna vein at 1.4 mg/Kg.
Evaluation of activity was effected with mortality at the time when arachidonic acid given. If survived at the first administration of arachidonic acid, arachidonic acid was administered after 6 hours, 24 hours, 48 hours and 72 hours from the administration of the test compound, respectively, and mortality was determined in respective cases.

Data set [3] deals with blood platelets. The experiment in a line: Activity to inhibit the aggregation of blood platelets (collagen, ex vivo after oral administration). In kind it is in vivo, rat (male Wistar-ST strain). The following applies: Rattus norvegicus, Platelet; 10 mg/Kg oral, 1 hour after administration; collagen 7 to 10 μg/ml; read-out: Inhibitory rate (blood platelet aggregation). As to the method:
Male Wistar-ST strain rats of an average body weight of 250 g were used, a group consisting of 8 animals. The test compound indicated in the following Table 1 was orally administered to rats in the form of a suspension in a 1% tragacanth aqueous solution at 4 ml/Kg (the test compound 10 mg/Kg).
One hour after the administration, blood samples were obtained from the carotid artery by means of a cannule. […] Tubes were turned upside-down and then subjected to centrifugation at 200×g over 15 minutes to assign the supernatant as a platelet-rich plasma (PRP). The residue was further centrifuged at […] over 15 minutes to assign the supernatant as a platelet-poor plasma (PPP). These supernatants were applied for determining the ability to aggregate blood platelets. […] As an aggregation inducing agent, collagen (availale from Hormon-chemie A.G.) was used at a concentration of 7 to 10 μg/ml.
Inhibitory rate to aggregate blood platelets was calculated according to the following equation: [formula] A: […] in the group to which the 1% tragacanth solution alone was given (Control)
B: Aggregation rate in the group to which the tragacanth solution of the test compound was given.

A short description of data set [4]: in vivo. Particulars: rat, po, rats.

`Clc1ccccc1CN1CCc2sccc2C1` [Ticlopidine, ticlopidine, reference compound]: the “Survival time of dead mice” value came out at 81 ± 13 s in data set [1] (300 mg/Kg oral) and 128 ± 18 s in data set [1] (1000 mg/Kg oral). In addition, the Mortality in data set [1] (300 mg/Kg oral) and in data set [1] (1000 mg/Kg oral) was 100% in each case. The “Mortality (number of rabbits)” value stood at 4 in data set [2] (30 mg/Kg oral, 2 hrs. after administration); 3 in data set [2] (100 mg/Kg oral, 2 hrs. after administration); 1 in data set [2] (100 mg/Kg oral, 6 hrs. after administration). For the compound `CCCNc1nnc(-c2ccccc2)c2ccccc12` [compound 1], in data set [3], the inhibition at 10 mg/kg worked out at 27.6%. Regarding `CC(C)Nc1nnc(-c2ccccc2)c2ccccc12` [compound 2], the inhibition at 10 mg/kg in data set [3] is 7.1%. Still for that read-out and setting: then `CCCCNc1nnc(-c2ccccc2)c2ccccc12` [compound 3], with 0%; and `CC(C)CNc1nnc(-c2ccccc2)c2ccccc12` [compound 4], with 0%; and `CCC(C)Nc1nnc(-c2ccccc2)c2ccccc12` (stereo not drawn) [compound 5], with 0%. With `CC(C)(C)Nc1nnc(-c2ccccc2)c2ccccc12` [compound 6], the inhibition at 10 mg/kg in data set [3] is 0%. Consider `CCCCCNc1nnc(-c2ccccc2)c2ccccc12` [compound 7], for which the inhibition at 10 mg/kg in data set [3] worked out at 6.2%. The same compound returned an LD50 in data set [4] of 1780 mg/kg. With `CCCC(C)Nc1nnc(-c2ccccc2)c2ccccc12` (stereo not drawn) [compound 8], the inhibition at 10 mg/kg in data set [3] came to 0%. On to `CCC(C)CNc1nnc(-c2ccccc2)c2ccccc12` (stereo not drawn) [compound 9], for which the inhibition at 10 mg/kg in data set [3] is 79.2%. In data set [4], this compound showed an LD50 of 2180 mg/kg. The matching figures for `CC(C)C(C)Nc1nnc(-c2ccccc2)c2ccccc12` (stereo not drawn) [compound 10]: 54.1% and 2530 mg/kg. Take `CC(C)CCNc1nnc(-c2ccccc2)c2ccccc12` [compound 11]: the inhibition at 10 mg/kg in data set [3] is 24%. Same read-out and setting: then `CCC(C)(C)Nc1nnc(-c2ccccc2)c2ccccc12` [compound 12], with 0%. For the compound `c1ccc(-c2nnc(NC3CCCC3)c3ccccc23)cc1` [compound 13], the inhibition at 10 mg/kg in data set [3] is 0%. The same measure, in the same setting: then `CCCCCCNc1nnc(-c2ccccc2)c2ccccc12` [compound 14], with 15.6%; and `CCC(CC)CNc1nnc(-c2ccccc2)c2ccccc12` [compound 15], with 14.6%. Same read-out and setting: for `CC(C)CC(C)Nc1nnc(-c2ccccc2)c2ccccc12` (stereo not drawn) [compound 16] the value was 0%. The same measure, in the same setting: then `CC(C)(C)CCNc1nnc(-c2ccccc2)c2ccccc12` [compound 17], with 17.3%; and `c1ccc(-c2nnc(NC3CCCCC3)c3ccccc23)cc1` [compound 18], with 0%; and `CCCCCCCNc1nnc(-c2ccccc2)c2ccccc12` [compound 19], with 0%. In the case of `CCCCCCCCNc1nnc(-c2ccccc2)c2ccccc12` [compound 20], the inhibition at 10 mg/kg in data set [3] came out at 0%.
